The record followed here is patent US12630498B2 (Genzyme Corporation, priority 2019, dated 2026).

Assay [1] addresses T1, CFTR-mediated transepithelial chloride transport in primary human bronchial epithelial cells from a ΔF508 homozygous CF donor (Homo sapiens, UniProt P13569, DEL508-508).
T1 construct: Primary human bronchial epithelial cells from a ΔF508 homozygous CF donor; host or cells: primary CF-HBE cells, ΔF508 homozygous donor
Kind of assay: TECC24 recording of CFTR-mediated transepithelial chloride transport in CF-HBE cells (AUC fold over DMSO). It counts as cell-based. As to conditions: test agent 10 μM, 48 hours incubation, AUC of forskolin-stimulated IEQ relative to DMSO. The gist of the method:
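Primary ΔF508/ΔF508 CF-HBE cells on inserts exposed to test agent in IL-13-containing medium for 48 h at 36.5 °C. Current-clamp VT/TEER recording in pH 7.4 HEPES saline with benzamil 10 μM, forskolin 10 μM, then CFTRinh-172 20 μM. AUC of equivalent Cl⁻ current between forskolin and inhibitor, expressed as ratio over vehicle.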

For assay [2], the target named is T2, human Cystic Fibrosis Transmembrane Conductance Regulator (CFTR) harboring the ΔF508 mutation (Homo sapiens, UniProt P13569, DEL508-508).
T2 construct: expressed in transfected cells; host or cells: H441 carcinoma line (G418-selected)
T2 sequence (P13569 with tags, fused parts or gaps DEL508-508): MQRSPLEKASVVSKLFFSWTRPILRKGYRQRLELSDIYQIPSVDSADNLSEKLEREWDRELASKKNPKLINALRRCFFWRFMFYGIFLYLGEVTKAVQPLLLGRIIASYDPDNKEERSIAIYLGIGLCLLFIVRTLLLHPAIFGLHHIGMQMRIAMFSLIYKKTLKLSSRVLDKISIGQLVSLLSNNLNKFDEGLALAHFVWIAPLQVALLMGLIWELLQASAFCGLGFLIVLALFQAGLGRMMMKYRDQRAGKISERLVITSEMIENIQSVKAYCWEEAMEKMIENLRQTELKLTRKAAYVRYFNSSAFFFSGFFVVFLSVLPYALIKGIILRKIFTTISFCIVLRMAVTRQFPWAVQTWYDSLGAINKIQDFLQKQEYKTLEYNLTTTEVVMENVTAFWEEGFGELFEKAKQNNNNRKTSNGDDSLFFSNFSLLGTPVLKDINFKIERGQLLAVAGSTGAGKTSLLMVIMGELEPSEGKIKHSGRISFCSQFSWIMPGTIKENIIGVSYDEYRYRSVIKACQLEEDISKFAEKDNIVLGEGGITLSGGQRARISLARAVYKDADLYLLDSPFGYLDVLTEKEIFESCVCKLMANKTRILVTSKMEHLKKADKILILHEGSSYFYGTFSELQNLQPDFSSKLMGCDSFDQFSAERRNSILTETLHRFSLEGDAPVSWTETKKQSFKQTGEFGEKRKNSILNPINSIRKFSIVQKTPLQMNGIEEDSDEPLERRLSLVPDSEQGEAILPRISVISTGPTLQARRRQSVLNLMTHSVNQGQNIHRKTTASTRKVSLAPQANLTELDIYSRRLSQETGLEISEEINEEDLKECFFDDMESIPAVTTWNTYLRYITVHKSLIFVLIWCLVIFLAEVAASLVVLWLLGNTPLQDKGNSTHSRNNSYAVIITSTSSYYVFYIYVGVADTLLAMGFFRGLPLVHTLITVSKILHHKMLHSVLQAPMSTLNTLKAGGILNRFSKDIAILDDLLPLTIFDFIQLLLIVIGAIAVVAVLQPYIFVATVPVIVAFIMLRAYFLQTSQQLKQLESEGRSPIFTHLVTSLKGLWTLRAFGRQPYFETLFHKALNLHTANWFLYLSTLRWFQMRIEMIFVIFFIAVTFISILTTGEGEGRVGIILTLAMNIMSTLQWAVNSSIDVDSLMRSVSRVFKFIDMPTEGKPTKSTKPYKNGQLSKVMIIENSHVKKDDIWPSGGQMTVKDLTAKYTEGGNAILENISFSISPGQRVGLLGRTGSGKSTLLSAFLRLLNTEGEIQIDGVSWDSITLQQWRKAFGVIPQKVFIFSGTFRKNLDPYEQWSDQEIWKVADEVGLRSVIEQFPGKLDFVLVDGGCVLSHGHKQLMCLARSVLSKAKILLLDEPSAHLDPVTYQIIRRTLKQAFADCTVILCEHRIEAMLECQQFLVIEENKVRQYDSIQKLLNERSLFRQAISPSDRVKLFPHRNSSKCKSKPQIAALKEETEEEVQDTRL
In words: H441 cell ΔF508-CFTR-HRP cell surface assay (Emax and EC50). As to conditions: for Emax: NCI-H441, NA = Not active. It counts as cell-based. The gist of the method:
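H441 and 41o- bronchial epithelial cells expressing ΔF508-CFTR with an extracellular-loop-4 HRP tag were treated with a 15-point compound series (24.5–0.001 μM) for two nights, H441 at 27° C, 41o- at 37° C with 0.0005 mg/ml doxycycline. Surface HRP luminescence read; % of maximum VX809 signal and EC50 derived.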

T1 sequence (P13569 with tags, fused parts or gaps DEL508-508): as above

`CCC1([C@H](NC(=O)c2ccc3ccc(Cl)cc3c2OCc2ccc(OC(F)(F)F)cc2)C(=O)O)CCCC1` [Example 253, (2S)-2-[[7-chloro-1-[[4-(trifluoromethoxy)phenyl]methoxy]naphthalene-2-carbonyl]amino]-2-(1-ethylcyclopentyl)acetic Acid]: in assay [1], the “TECC24 AUC fold over DMSO @10 μM” value is listed as “A (“A” refers to AUC @10 uM >6)”. In addition, the maximum response (Emax) in assay [2] turned out to be 239%.

For the compound `C[C@@H](OCc1ccccc1)[C@H](NC(=O)c1ccc2cc(F)ccc2c1OCC1CCCCC1)C(=O)O` (stereo in doubt) [Example 202], the “TECC24 AUC fold over DMSO @10 μM” value in assay [1] is “C (“C” refers to AUC @10 uM <4)”. In assay [2], this compound registered a concentration giving a half-maximal response (EC50) of 4.1 µM and an Emax of 112%.

Usually Emax stands for the greatest response seen or fitted, relative to the assay's reference. Broadly, the EC50 is the concentration needed to bring the measured effect to its halfway point. Low values mean a more potent agent, high ones a less potent agent.
